Measured values published in ChEMBL document CHEMBL4507320, “Data for DCP probe NVS-MALT1” (2021).

Legend:
[1] = system: Tyrosine-protein kinase ABL1 (Homo sapiens), P00519 [Y253F]; conditions: Compound concentration 1000.0 nM
[2] = molecular target: Tyrosine-protein kinase Blk (Homo sapiens) (UniProt P51451); conditions: Compound concentration 1000.0 nM
[3] = molecular target: Cyclin-dependent kinase 5 (Homo sapiens) (UniProt Q00535); conditions: Compound concentration 1000.0 nM
[4] = molecular target: Cyclin-dependent kinase-like 5 (Homo sapiens) (UniProt O76039); conditions: Compound concentration 1000.0 nM
[5] = molecular target: Dual specificity protein kinase CLK2 (Homo sapiens) (UniProt P49760); conditions: Compound concentration 1000.0 nM
[6] = molecular target: Casein kinase I isoform gamma-1 (Homo sapiens) (UniProt Q9HCP0); conditions: Compound concentration 1000.0 nM
[7] = molecular target: Megakaryocyte-associated tyrosine-protein kinase (Homo sapiens) (UniProt P42679); conditions: Compound concentration 1000.0 nM
[8] = molecular target: Serine/threonine-protein kinase DCLK1 (Homo sapiens) (UniProt O15075); conditions: Compound concentration 1000.0 nM
[9] = molecular target: Serine/threonine-protein kinase DCLK3 (Homo sapiens) (UniProt Q9C098); conditions: Compound concentration 1000.0 nM
[10] = molecular target: Serine/threonine-protein kinase 17A (Homo sapiens) (UniProt Q9UEE5); conditions: Compound concentration 1000.0 nM
[11] = molecular target: Serine/threonine-protein kinase 17B (Homo sapiens) (UniProt O94768); conditions: Compound concentration 1000.0 nM
[12] = molecular target: Dual specificity tyrosine-phosphorylation-regulated kinase 1A (Homo sapiens) (UniProt Q13627); conditions: Compound concentration 1000.0 nM
[13] = molecular target: Ephrin type-A receptor 7 (Homo sapiens) (UniProt Q15375); conditions: Compound concentration 1000.0 nM
[14] = molecular target: Receptor tyrosine-protein kinase erbB-2 (Homo sapiens) (UniProt P04626); conditions: Compound concentration 1000.0 nM
[15] = molecular target: Serine/threonine-protein kinase/endoribonuclease IRE1 (Homo sapiens) (UniProt O75460); conditions: Compound concentration 1000.0 nM
[16] = molecular target: Fibroblast growth factor receptor 2 (Homo sapiens) (UniProt P21802); conditions: Compound concentration 1000.0 nM
[17] = system: Receptor-type tyrosine-protein kinase FLT3 (Homo sapiens), P36888 [D835H]; conditions: Compound concentration 1000.0 nM
[18] = molecular target: Inhibitor of nuclear factor kappa-B kinase subunit epsilon (Homo sapiens) (UniProt Q14164); conditions: Compound concentration 1000.0 nM
[19] = molecular target: Mitogen-activated protein kinase kinase kinase kinase 2 (Homo sapiens) (UniProt Q12851); conditions: Compound concentration 1000.0 nM
[20] = molecular target: MAP/microtubule affinity-regulating kinase 3 (Homo sapiens) (UniProt P27448); conditions: Compound concentration 1000.0 nM
[21] = molecular target: MAP kinase-interacting serine/threonine-protein kinase 2 (Homo sapiens) (UniProt Q9HBH9); conditions: Compound concentration 1000.0 nM
[22] = molecular target: Serine/threonine-protein kinase MRCK alpha (Homo sapiens) (UniProt Q5VT25); conditions: Compound concentration 1000.0 nM
[23] = molecular target: Serine/threonine-protein kinase Nek3 (Homo sapiens) (UniProt P51956); conditions: Compound concentration 1000.0 nM
[24] = molecular target: Serine/threonine-protein kinase Nek7 (Homo sapiens) (UniProt Q8TDX7); conditions: Compound concentration 1000.0 nM
[25] = molecular target: Serine/threonine-protein kinase Nek9 (Homo sapiens) (UniProt Q8TD19); conditions: Compound concentration 1000.0 nM
[26] = molecular target: Serine/threonine-protein kinase NIM1 (Homo sapiens) (UniProt Q8IY84); conditions: Compound concentration 1000.0 nM
[27] = molecular target: Serine/threonine-protein kinase PAK 4 (Homo sapiens) (UniProt O96013); conditions: Compound concentration 1000.0 nM
[28] = molecular target: Platelet-derived growth factor receptor alpha (Homo sapiens) (UniProt P16234); conditions: Compound concentration 1000.0 nM
[29] = system: Phosphatidylinositol 4,5-bisphosphate 3-kinase catalytic subunit alpha isoform (Homo sapiens), P42336 [E545A]; conditions: Compound concentration 1000.0 nM
[30] = system: Phosphatidylinositol 4,5-bisphosphate 3-kinase catalytic subunit alpha isoform (Homo sapiens), P42336 [E545K]; conditions: Compound concentration 1000.0 nM
[31] = molecular target: Serine/threonine-protein kinase N2 (Homo sapiens) (UniProt Q16513); conditions: Compound concentration 1000.0 nM
[32] = molecular target: Protein kinase C eta type (Homo sapiens) (UniProt P24723); conditions: Compound concentration 1000.0 nM
[33] = molecular target: RAF proto-oncogene serine/threonine-protein kinase (Homo sapiens) (UniProt P04049); conditions: Compound concentration 1000.0 nM
[34] = molecular target: Dual serine/threonine and tyrosine protein kinase (Homo sapiens) (UniProt Q6XUX3); conditions: Compound concentration 1000.0 nM
[35] = molecular target: Ribosomal protein S6 kinase alpha-4 (Homo sapiens) (UniProt O75676); conditions: Compound concentration 1000.0 nM
[36] = molecular target: Ribosomal protein S6 kinase alpha-5 (Homo sapiens) (UniProt O75582); conditions: Compound concentration 1000.0 nM
[37] = molecular target: Ribosomal protein S6 kinase alpha-3 (Homo sapiens) (UniProt P51812); conditions: Compound concentration 1000.0 nM
[38] = molecular target: Tyrosine-protein kinase Srms (Homo sapiens) (UniProt Q9H3Y6); conditions: Compound concentration 1000.0 nM
[39] = molecular target: Mitogen-activated protein kinase kinase kinase 7 (Homo sapiens) (UniProt O43318); conditions: Compound concentration 1000.0 nM
[40] = molecular target: Serine/threonine-protein kinase ULK2 (Homo sapiens) (UniProt Q8IYT8); conditions: Compound concentration 1000.0 nM
[41] = molecular target: Serine/threonine-protein kinase 25 (Homo sapiens) (UniProt O00506); conditions: Compound concentration 1000.0 nM
[42] = molecular target: Alpha-1A adrenergic receptor (Homo sapiens) (UniProt P35348); conditions: Compound concentration 10.0 uM
[43] = molecular target: Alpha-1B adrenergic receptor (Homo sapiens) (UniProt P35368); conditions: Compound concentration 10.0 uM
[44] = molecular target: Muscarinic acetylcholine receptor M4 (Homo sapiens) (UniProt P08173); conditions: Compound concentration 10.0 uM
[45] = molecular target: Alpha-1D adrenergic receptor (Homo sapiens) (UniProt P25100); conditions: Compound concentration 10.0 uM
Sequence of Alpha-1D adrenergic receptor (Homo sapiens) (P25100 whole entry): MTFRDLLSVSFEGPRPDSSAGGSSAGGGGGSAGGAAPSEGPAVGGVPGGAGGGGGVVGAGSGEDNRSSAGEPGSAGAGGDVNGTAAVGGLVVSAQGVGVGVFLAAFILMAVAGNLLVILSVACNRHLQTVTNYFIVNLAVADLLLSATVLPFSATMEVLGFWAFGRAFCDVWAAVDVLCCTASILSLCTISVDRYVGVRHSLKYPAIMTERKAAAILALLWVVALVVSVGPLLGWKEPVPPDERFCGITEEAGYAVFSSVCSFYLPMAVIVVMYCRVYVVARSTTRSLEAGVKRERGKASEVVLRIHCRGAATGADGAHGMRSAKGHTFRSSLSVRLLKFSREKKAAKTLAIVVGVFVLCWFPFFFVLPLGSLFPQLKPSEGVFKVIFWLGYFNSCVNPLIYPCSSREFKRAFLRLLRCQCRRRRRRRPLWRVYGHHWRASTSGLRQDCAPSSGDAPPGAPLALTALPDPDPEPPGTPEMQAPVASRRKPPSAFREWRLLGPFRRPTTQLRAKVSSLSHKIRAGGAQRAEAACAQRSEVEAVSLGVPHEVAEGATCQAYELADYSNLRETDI

Sequence of Dual specificity protein kinase CLK2 (Homo sapiens) (P49760 whole entry, looked up, canonical isoform): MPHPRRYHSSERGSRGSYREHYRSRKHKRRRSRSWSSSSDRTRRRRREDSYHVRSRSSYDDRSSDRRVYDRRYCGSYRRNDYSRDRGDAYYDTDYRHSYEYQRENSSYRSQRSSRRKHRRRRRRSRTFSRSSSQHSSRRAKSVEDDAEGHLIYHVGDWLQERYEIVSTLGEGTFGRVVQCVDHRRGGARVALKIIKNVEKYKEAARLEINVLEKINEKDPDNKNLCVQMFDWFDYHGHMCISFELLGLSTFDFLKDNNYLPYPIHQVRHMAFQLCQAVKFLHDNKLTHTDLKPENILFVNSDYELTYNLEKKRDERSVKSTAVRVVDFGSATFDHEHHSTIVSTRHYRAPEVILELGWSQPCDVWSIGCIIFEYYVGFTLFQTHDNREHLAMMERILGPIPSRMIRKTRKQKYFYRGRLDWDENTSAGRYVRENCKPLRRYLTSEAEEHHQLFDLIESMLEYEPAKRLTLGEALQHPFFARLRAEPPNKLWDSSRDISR
Sequence of Cyclin-dependent kinase 5 (Homo sapiens) (Q00535 whole entry, looked up): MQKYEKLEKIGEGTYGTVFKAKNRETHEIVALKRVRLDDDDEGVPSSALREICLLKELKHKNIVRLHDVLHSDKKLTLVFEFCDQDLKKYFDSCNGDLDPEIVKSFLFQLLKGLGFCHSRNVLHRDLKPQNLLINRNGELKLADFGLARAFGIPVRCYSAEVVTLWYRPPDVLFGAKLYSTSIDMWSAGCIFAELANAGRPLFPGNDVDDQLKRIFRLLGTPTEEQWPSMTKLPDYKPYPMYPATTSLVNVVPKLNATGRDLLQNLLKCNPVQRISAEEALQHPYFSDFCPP
Sequence of Dual serine/threonine and tyrosine protein kinase (Homo sapiens) (Q6XUX3 whole entry): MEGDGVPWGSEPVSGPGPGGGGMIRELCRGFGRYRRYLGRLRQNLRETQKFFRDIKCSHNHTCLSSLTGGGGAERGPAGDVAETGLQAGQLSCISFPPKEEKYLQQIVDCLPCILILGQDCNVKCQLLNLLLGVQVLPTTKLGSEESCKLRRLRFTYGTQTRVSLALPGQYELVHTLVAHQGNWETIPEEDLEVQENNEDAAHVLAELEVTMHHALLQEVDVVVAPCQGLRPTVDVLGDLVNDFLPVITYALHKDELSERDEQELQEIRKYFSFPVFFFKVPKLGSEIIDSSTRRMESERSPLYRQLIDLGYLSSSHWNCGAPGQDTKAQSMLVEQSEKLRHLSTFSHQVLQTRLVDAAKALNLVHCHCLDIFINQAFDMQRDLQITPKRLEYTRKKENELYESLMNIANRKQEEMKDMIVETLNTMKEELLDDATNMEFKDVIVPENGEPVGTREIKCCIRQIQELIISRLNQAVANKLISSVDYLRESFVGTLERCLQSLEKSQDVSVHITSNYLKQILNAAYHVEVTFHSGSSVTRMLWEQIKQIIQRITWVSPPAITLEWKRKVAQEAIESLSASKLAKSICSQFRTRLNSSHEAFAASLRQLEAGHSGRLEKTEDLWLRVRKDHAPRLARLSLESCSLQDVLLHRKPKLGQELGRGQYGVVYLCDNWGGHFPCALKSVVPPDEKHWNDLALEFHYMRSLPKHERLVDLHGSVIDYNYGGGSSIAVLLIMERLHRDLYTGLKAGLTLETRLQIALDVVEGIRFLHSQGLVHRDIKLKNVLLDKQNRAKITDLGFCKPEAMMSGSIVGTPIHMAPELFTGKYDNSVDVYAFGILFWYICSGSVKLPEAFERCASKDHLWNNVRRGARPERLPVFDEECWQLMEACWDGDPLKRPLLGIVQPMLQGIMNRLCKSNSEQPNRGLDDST
Sequence of Serine/threonine-protein kinase NIM1 (Homo sapiens) (Q8IY84 whole entry): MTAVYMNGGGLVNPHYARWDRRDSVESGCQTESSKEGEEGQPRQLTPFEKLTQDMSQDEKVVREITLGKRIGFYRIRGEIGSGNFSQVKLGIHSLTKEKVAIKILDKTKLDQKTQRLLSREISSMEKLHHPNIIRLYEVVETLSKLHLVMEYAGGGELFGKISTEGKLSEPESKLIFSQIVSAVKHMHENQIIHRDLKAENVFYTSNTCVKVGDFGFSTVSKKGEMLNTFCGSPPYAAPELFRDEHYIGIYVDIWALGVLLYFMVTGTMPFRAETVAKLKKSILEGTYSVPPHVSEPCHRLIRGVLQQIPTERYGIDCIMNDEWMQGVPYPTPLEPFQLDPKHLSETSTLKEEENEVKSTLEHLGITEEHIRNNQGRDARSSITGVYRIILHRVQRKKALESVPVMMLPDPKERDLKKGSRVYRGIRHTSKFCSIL
Sequence of Serine/threonine-protein kinase N2 (Homo sapiens) (Q16513 whole entry, looked up): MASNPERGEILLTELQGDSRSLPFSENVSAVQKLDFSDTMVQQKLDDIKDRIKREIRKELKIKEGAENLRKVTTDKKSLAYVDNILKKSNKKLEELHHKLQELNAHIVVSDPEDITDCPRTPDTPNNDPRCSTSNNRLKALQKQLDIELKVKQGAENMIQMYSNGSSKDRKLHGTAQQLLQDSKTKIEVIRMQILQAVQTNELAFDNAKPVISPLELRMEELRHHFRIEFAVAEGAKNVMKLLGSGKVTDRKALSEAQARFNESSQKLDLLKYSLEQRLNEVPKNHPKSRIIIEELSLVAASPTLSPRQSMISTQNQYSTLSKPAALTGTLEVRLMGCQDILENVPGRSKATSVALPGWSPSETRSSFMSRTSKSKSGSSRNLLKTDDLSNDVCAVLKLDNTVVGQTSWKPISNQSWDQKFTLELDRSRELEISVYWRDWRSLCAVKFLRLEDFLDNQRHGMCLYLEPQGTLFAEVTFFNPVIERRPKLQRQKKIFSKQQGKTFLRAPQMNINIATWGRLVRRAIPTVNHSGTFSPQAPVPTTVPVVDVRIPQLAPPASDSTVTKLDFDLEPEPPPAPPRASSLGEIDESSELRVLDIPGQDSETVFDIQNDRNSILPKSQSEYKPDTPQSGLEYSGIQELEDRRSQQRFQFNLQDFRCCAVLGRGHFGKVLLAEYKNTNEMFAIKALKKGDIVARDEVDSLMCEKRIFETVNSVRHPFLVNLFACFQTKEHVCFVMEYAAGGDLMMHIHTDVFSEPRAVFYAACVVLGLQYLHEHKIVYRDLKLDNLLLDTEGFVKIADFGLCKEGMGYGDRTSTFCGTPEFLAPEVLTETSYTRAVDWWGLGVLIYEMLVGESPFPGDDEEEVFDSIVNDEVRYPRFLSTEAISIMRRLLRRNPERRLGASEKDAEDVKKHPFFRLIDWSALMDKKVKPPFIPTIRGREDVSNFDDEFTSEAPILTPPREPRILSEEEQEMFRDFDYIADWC
Sequence of Serine/threonine-protein kinase DCLK3 (Homo sapiens) (Q9C098 whole entry): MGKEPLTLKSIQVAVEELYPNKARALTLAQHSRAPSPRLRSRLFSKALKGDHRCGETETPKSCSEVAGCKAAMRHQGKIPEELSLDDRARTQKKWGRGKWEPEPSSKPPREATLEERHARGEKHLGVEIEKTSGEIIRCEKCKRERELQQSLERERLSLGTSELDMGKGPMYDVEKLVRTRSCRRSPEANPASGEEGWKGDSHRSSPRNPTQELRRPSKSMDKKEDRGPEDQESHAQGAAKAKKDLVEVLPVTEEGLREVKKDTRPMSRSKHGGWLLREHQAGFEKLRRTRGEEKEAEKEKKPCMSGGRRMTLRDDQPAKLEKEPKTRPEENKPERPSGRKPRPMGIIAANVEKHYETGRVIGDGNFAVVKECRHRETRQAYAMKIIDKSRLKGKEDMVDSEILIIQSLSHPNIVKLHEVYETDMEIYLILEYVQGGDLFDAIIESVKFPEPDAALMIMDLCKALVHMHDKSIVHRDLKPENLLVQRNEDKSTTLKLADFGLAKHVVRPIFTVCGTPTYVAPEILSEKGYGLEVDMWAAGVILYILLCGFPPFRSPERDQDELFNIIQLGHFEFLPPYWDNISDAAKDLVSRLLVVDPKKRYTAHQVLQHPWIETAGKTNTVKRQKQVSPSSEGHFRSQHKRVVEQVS
Sequence of Tyrosine-protein kinase Blk (Homo sapiens) (P51451 2-505 limits assumed): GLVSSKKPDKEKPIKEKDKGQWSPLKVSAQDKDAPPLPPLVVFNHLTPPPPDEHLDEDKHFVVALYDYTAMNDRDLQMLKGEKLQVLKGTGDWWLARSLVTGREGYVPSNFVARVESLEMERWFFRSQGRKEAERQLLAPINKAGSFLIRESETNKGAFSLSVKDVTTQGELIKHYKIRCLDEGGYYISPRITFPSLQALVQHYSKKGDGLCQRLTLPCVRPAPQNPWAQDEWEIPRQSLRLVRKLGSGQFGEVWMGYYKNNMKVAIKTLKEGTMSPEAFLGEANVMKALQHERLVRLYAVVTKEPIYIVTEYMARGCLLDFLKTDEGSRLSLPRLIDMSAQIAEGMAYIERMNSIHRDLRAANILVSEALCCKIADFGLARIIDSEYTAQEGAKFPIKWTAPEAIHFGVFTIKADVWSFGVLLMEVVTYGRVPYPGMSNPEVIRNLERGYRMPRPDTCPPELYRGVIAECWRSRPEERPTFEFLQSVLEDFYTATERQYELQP

CO[C@@H](C)c1c(Nc2ccc([C@@H](N(C)C(=O)C3CCS(=O)(=O)CC3)C(F)(F)F)cc2)cnc2cc(Cl)nn12 [NVS-MALT1-C]
residual activity [1]: 100% | residual activity [2]: 56% | residual activity [3]: 99% | residual activity [4]: 89% | residual activity [5]: 100% | residual activity [6]: 99% | residual activity [7]: 98% | residual activity [8]: 75% | residual activity [9]: 100% | residual activity [10]: 90% | residual activity [11]: 98% | residual activity [12]: 92% | residual activity [13]: 87% | residual activity [14]: 70% | residual activity [15]: 100% | residual activity [16]: 84% | residual activity [17]: 63% | residual activity [18]: 100% | residual activity [19]: 100% | residual activity [20]: 100% | residual activity [21]: 85% | residual activity [22]: 94% | residual activity [23]: 61% | residual activity [24]: 91% | residual activity [25]: 90% | residual activity [26]: 85% | residual activity [27]: 100% | residual activity [28]: 100% | residual activity [29]: 77% | residual activity [30]: 62% | residual activity [31]: 88% | residual activity [32]: 78% | residual activity [33]: 100% | residual activity [34]: 100% | residual activity [35]: 100% | residual activity [36]: 82% | residual activity [37]: 100% | residual activity [38]: 100% | residual activity [39]: 84% | residual activity [40]: 92% | residual activity [41]: 84% | inhibition [42]: -3.44% | inhibition [43]: 5.97% | inhibition [44]: 21.1% | inhibition [45]: 3.2%

CO[C@@H](C)c1c(Nc2ccc([C@H](N(C)C(=O)C3CCS(=O)(=O)CC3)C(F)(F)F)cc2)cnc2cc(Cl)nn12 [NVS-MALT1]
residual activity [1]: 100% | residual activity [2]: 87% | residual activity [3]: 96% | residual activity [4]: 95% | residual activity [5]: 100% | residual activity [6]: 100% | residual activity [7]: 99% | residual activity [8]: 72% | residual activity [9]: 100% | residual activity [10]: 87% | residual activity [11]: 99% | residual activity [12]: 75% | residual activity [13]: 84% | residual activity [14]: 59% | residual activity [15]: 91% | residual activity [16]: 91% | residual activity [17]: 75% | residual activity [18]: 100% | residual activity [19]: 100% | residual activity [20]: 100% | residual activity [21]: 100% | residual activity [22]: 86% | residual activity [23]: 40% | residual activity [24]: 75% | residual activity [25]: 77% | residual activity [26]: 79% | residual activity [27]: 95% | residual activity [28]: 100% | residual activity [29]: 65% | residual activity [30]: 48% | residual activity [31]: 100% | residual activity [32]: 86% | residual activity [33]: 97% | residual activity [34]: 100% | residual activity [35]: 100% | residual activity [36]: 86% | residual activity [37]: 100% | residual activity [38]: 95% | residual activity [39]: 89% | residual activity [40]: 96% | residual activity [41]: 87% | inhibition [42]: -7.59% | inhibition [43]: 27.6% | inhibition [44]: 21.3% | inhibition [45]: -6.69%
